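These data come from cells grown in 96-well plates and exposed to compound for 48 hours at five concentrations. At the GI50, growth is halved.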 Activity calls are given as the source filed them. Cut-off read from the data, not from the text of the source: active = GI50 up to about 1.1 µM and inactive = higher.
What was measured:
Test in all cases: DTP human tumour cell line panel, 48 h
DU-145 = system: DU-145
HOP-92 = system: HOP-92
HCC 2998 = system: HCC 2998
MOLT-4 = system: MOLT-4
U-251 = system: U-251
SW-620 = system: SW-620
SR = system: SR
UO-31 = system: UO-31
RXF 393 = system: RXF 393
UACC-257 = system: UACC-257
PC-3 = system: PC-3
SK-MEL-5 = system: SK-MEL-5
K562 = system: K562
SF-539 = system: SF-539
CAKI-1 = system: CAKI-1
EKVX = system: EKVX
786-0 = system: 786-0
Malme-3M = system: Malme-3M
UACC-62 = system: UACC-62
HL-60 = system: HL-60

Measured: GI50

Cc1ccc(S(=O)(=O)N2CCCN(S(=O)(=O)c3ccc(C)cc3)CC2)cc1
inactive: DU-145 > 100 µM | HOP-92 > 100 µM | HCC 2998 > 100 µM | MOLT-4 > 100 µM | U-251 > 100 µM | SW-620 > 100 µM | SR > 100 µM | UO-31 > 100 µM | RXF 393 > 100 µM | UACC-257 > 100 µM | PC-3 > 100 µM | SK-MEL-5 > 100 µM | K562 > 100 µM

O=C1CCC(NC(=O)c2ccccc2)C(=O)N1 (configuration not stated)
inactive: SF-539 > 100 µM | DU-145 > 100 µM | CAKI-1 > 100 µM | EKVX > 100 µM | HOP-92 > 100 µM | HCC 2998 > 100 µM | MOLT-4 2.97 µM | 786-0 > 100 µM | Malme-3M > 100 µM | U-251 > 100 µM | SW-620 > 100 µM | SR > 100 µM | UO-31 > 100 µM | RXF 393 > 100 µM | UACC-62 > 100 µM | UACC-257 > 100 µM | PC-3 > 100 µM | SK-MEL-5 > 100 µM

N#Cc1c(N)sc2c1-c1ccccc1OC2
inactive: SF-539 46.6 µM | DU-145 50.1 µM | EKVX 3.52 µM | HOP-92 44 µM | HCC 2998 26 µM | MOLT-4 17.5 µM | HL-60 16.4 µM | Malme-3M 41.2 µM | U-251 45.1 µM | SW-620 35.5 µM | SR 19.1 µM | UO-31 25.2 µM | RXF 393 16 µM | UACC-62 53.7 µM | UACC-257 > 100 µM | PC-3 32.4 µM | SK-MEL-5 45.3 µM | K562 34.2 µM

C/C(=N\NC(=S)N1CCN(C2CCCCCC2)CC1)c1ccccn1
active: SF-539 0.0927 µM | DU-145 1.02 µM | CAKI-1 0.037 µM | EKVX < 0.0121 µM | HOP-92 0.0473 µM | HCC 2998 < 0.0485 µM | MOLT-4 0.01 µM | HL-60 0.01 µM | Malme-3M 0.105 µM | U-251 < 0.0117 µM | SW-620 0.01 µM | SR 0.01 µM | UO-31 0.1 µM | RXF 393 0.212 µM | UACC-62 < 0.012 µM | UACC-257 0.01 µM | PC-3 0.01 µM | SK-MEL-5 0.0249 µM | K562 0.01 µM

CCN(CC)C(=O)CCN1CC1
inactive: SF-539 > 10 µM | DU-145 > 10 µM | CAKI-1 > 10 µM | EKVX > 10 µM | HOP-92 > 10 µM | HCC 2998 > 10 µM | MOLT-4 > 10 µM | HL-60 > 10 µM | 786-0 > 10 µM | Malme-3M > 10 µM | U-251 > 10 µM | SR > 10 µM | UO-31 > 10 µM | RXF 393 > 10 µM | UACC-62 > 10 µM | UACC-257 > 10 µM | PC-3 > 10 µM | SK-MEL-5 > 10 µM | K562 > 10 µM

COc1ccc2nc3c([N+](=O)[O-])ccc4c3c(c2c1)N=CN4CCCN(C)C
inactive: DU-145 2.52 µM | CAKI-1 1.27 µM | EKVX 1.64 µM | HOP-92 1.99 µM | HCC 2998 1.37 µM | HL-60 2.77 µM | Malme-3M 6.3 µM | U-251 1.65 µM | UO-31 2.38 µM | UACC-62 6.24 µM | UACC-257 3.78 µM | PC-3 1.21 µM | SK-MEL-5 3.24 µM
active: SF-539 0.944 µM | MOLT-4 0.23 µM | 786-0 0.614 µM | SW-620 0.44 µM | SR 0.125 µM | K562 0.488 µM

CCOC(=O)/C=C/c1nc(C#N)c(N)o1
inactive: DU-145 > 100 µM | CAKI-1 > 100 µM | EKVX > 100 µM | HOP-92 > 100 µM | MOLT-4 > 100 µM | HL-60 > 100 µM | 786-0 > 100 µM | U-251 > 100 µM | SW-620 > 100 µM | SR > 100 µM | UO-31 53.6 µM | RXF 393 1.46 µM | UACC-62 > 100 µM | UACC-257 > 100 µM | PC-3 > 100 µM | SK-MEL-5 > 100 µM | K562 > 100 µM

O=C(NC1C(=O)NC(CCc2ccccc2)NC1=O)OCc1ccccc1 (configuration not stated)
inactive: SF-539 > 100 µM | DU-145 > 100 µM | CAKI-1 > 100 µM | EKVX > 100 µM | HOP-92 > 100 µM | MOLT-4 > 100 µM | HL-60 > 100 µM | 786-0 > 100 µM | Malme-3M > 100 µM | U-251 > 100 µM | SW-620 > 100 µM | SR > 100 µM | UO-31 > 100 µM | RXF 393 > 100 µM | UACC-62 > 100 µM | UACC-257 > 100 µM | PC-3 > 100 µM | SK-MEL-5 > 100 µM | K562 > 100 µM

CN1CCN(c2ccc3c(c2)NCC(=O)N3)CC1
inactive: DU-145 > 100 µM | CAKI-1 > 100 µM | EKVX 96.4 µM | HOP-92 > 100 µM | HCC 2998 > 100 µM | MOLT-4 > 100 µM | HL-60 > 100 µM | 786-0 > 100 µM | Malme-3M > 100 µM | U-251 > 100 µM | SW-620 > 100 µM | SR > 100 µM | UO-31 > 100 µM | RXF 393 > 100 µM | UACC-62 > 100 µM | UACC-257 > 100 µM | PC-3 > 100 µM | SK-MEL-5 > 100 µM | K562 > 100 µM

C=C1CC(C)(COc2ccc3ccc(=O)oc3c2)OC1=O (configuration not stated)
active: HL-60 0.256 µM | Malme-3M 1.01 µM | SW-620 0.822 µM | SR 1.08 µM | UACC-257 0.671 µM | K562 0.581 µM
inactive: SF-539 2.65 µM | DU-145 3.22 µM | CAKI-1 2.03 µM | EKVX 7.53 µM | HOP-92 1.12 µM | HCC 2998 2.18 µM | MOLT-4 1.18 µM | 786-0 1.42 µM | U-251 13 µM | UO-31 15.8 µM | UACC-62 2.94 µM | PC-3 3.48 µM | SK-MEL-5 2.34 µM

O=S(=O)(Cc1nc2ccccc2s1)c1nc2ccccc2s1
inactive: SF-539 21.2 µM | DU-145 17.9 µM | EKVX 18.5 µM | HOP-92 12.9 µM | HCC 2998 16.4 µM | MOLT-4 17.6 µM | HL-60 8.11 µM | 786-0 17.4 µM | Malme-3M 11.3 µM | U-251 18.5 µM | SW-620 17.2 µM | SR 4.72 µM | UO-31 16.7 µM | RXF 393 22.5 µM | UACC-62 16 µM | UACC-257 15.8 µM | PC-3 17 µM | SK-MEL-5 12.9 µM | K562 12.6 µM

CC(=O)OC(C)(C)CCC(=O)[C@](C)(O)[C@H]1[C@H](O)C[C@@]2(C)[C@@H]3CC=C4C(C)=C(OC5OC(CO)C(O)C(O)C5O)C(=O)C[C@@H]4[C@]3(C)C(=O)C[C@]12C (some centres not stated)
inactive: SF-539 > 100 µM | DU-145 > 100 µM | CAKI-1 > 100 µM | EKVX > 100 µM | HOP-92 > 100 µM | HCC 2998 > 100 µM | MOLT-4 > 100 µM | 786-0 > 100 µM | Malme-3M > 100 µM | U-251 > 100 µM | SW-620 > 100 µM | SR > 100 µM | UO-31 > 100 µM | RXF 393 > 100 µM | UACC-62 > 100 µM | UACC-257 > 100 µM | PC-3 > 100 µM | SK-MEL-5 > 100 µM | K562 > 100 µM

C=C1C(=O)O[C@H]2C1C[C@H](O)[C@@]1(C)OC1CC[C@@]1(C)O[C@H]21 (some centres not stated)
inactive: DU-145 34.5 µM | CAKI-1 17.7 µM | EKVX 18.2 µM | HOP-92 20.6 µM | HCC 2998 14.7 µM | MOLT-4 10.1 µM | 786-0 21 µM | Malme-3M 12 µM | U-251 > 100 µM | SW-620 13.6 µM | SR 17.8 µM | UO-31 17.1 µM | RXF 393 22.5 µM | UACC-62 14.6 µM | UACC-257 18.1 µM | PC-3 17.8 µM | SK-MEL-5 20.4 µM | K562 4.28 µM

NS(=O)(=O)c1ccc(-n2c(-c3cccs3)nc3ccc(I)cc3c2=O)cc1
active: UACC-257 0.0522 µM
inactive: DU-145 18.8 µM | CAKI-1 19.4 µM | EKVX 25.1 µM | HOP-92 18.5 µM | HCC 2998 22.1 µM | MOLT-4 52.8 µM | HL-60 20.6 µM | 786-0 28.7 µM | Malme-3M 18.3 µM | U-251 20 µM | SW-620 37.9 µM | SR 35 µM | UO-31 20 µM | RXF 393 28.2 µM | UACC-62 17.9 µM | PC-3 26.6 µM | SK-MEL-5 23.7 µM

NC(CCCCCP(=O)(O)O)C(=O)O (configuration not stated) [AP-7]
inactive: SF-539 > 100 µM | DU-145 > 100 µM | CAKI-1 > 100 µM | EKVX > 100 µM | HOP-92 > 100 µM | HCC 2998 > 100 µM | MOLT-4 > 100 µM | HL-60 > 100 µM | U-251 > 100 µM | SW-620 > 100 µM | SR > 100 µM | UO-31 > 100 µM | RXF 393 > 100 µM | UACC-62 80.7 µM | UACC-257 > 100 µM | PC-3 > 100 µM | SK-MEL-5 > 100 µM | K562 > 100 µM

Reference: ChEMBL document CHEMBL1201862, “PubChem BioAssay data set” (2004)
